This is an account of results in patent publication US9126976B2 (Merck Sharp & Dohme Corp., priority 2011, dated 2015).

One may read the IC50 as the concentration needed to halve the response being measured.

endogenous CETP from serum, sequence (P11597 18-493 limits assumed): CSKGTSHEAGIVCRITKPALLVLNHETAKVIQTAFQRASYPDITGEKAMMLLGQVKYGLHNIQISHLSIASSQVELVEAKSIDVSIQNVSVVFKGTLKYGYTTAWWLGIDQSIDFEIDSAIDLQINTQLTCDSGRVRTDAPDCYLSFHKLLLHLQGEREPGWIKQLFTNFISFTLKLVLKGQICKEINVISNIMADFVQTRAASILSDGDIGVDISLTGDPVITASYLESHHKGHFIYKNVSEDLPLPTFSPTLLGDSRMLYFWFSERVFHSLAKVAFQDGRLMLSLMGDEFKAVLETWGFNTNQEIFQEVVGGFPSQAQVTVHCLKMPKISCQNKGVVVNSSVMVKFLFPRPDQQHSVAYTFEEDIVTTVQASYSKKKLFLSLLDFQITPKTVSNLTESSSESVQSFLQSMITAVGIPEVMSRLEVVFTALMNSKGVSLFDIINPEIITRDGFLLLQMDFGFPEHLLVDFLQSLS
CETP, sequence (P11597 18-493 limits assumed): as above

One data set has as its target endogenous CETP from serum (Homo sapiens (Human), UniProt P11597). Nature of the data set: RTA assay using endogenous CETP from serum (95% human serum). In kind it is biochemical. The conditions noted are these: RTA in 95% human serum, Table 2. On the procedure: (§1) In Vitro Radioactive Assays of CETP-Catalyzed CE and TG Transfer (RTA Assay)
(§2) Reagents and sources are: [3H] cholesteryl oleate (GE #TRK.886), [3H] Triolein (Perkin-Elmer NET-431), Butylated hydroxyl toluene (Aldrich, #D4740-4), DOPC (Sigma, # P6354), Sodium Bromide (Fisher scientific #S255-500), PEG 8000 (Fisher, #BP233-1), and human HDL (Intracel Corp #RP-036).
(§3) An in vitro assay for determining IC50's to identify compounds that inhibit CETP transfer activity is performed based on a modification of a published method (Morton and Zilversmit, (1981) A plasma inhibitor of triglyceride and cholesteryl ester transfer activities, J. Biol. Chem. 256(23), 11992-11995). The ability of inhibitors to alter CETP activity is performed using two different assays: one using recombinant CETP and one using an endogenous plasma source of CETP. Both assays measure the transfer of [3H] cholesteryl oleate or [3H] triolein from exogenous LDL to HDL.
(§4) Radiolabeled donor particles are generated by first combining 100 μl of 200 μM butylated hydroxyl toluene in CHCl3, 216 μL of 21.57 mM DOPC in EtOH, and either 500 μCi [3H]-triolein (Perkin Elmer #NET-431) or 500 μCi [3H]-cholesteryl oleate (GE #TRK886) in a glass tube. Reagents are mixed, dried under nitrogen, and then resuspended in 2 mL of 50 mM Tris, 27 μM EDTA at pH 7.4. After a brief vortex, the solution is sonicated until clear and mixed with 20 mL of fresh human serum. The mixture is incubated overnight at 37° C. The [3H] labeled LDL substrate is separated at 1.063 g/ml density by sequential ultracentrifugal flotation in NaBr according to the method by (Havel, Eder et al. 1955; Chapman, Goldstein et al. 1981). Once isolated the particles are dialyzed 3× in CETP buffer (50 mM Tris, pH 7.4, 100 mM NaCl, 1 mM EDTA). Human HDL is purchased from Intracel and used as the acceptor particles.
Transfer assays are performed in a 96-well v-bottom polypropylene plate. For the RTA using recombinant CETP (2% RTA), an assay cocktail is prepared with the final concentrations 128 μg/mL HDL, 20 nM rCETP, 2% human serum, and 1×CETP buffer. 1 μL of each test compound diluted in DMSO is added to 47 μL of assay cocktail per well and incubated at 37° C. for 1 hour. To initiate the transfer reaction, 2 μL radiolabeled LDL is added. After an additional 60 min of incubation at 37° C., the transfer action is terminated by precipitation of LDL with an equal volume of 20% W/V PEG 8000. The plates are centrifuged at 2000 rpm for 30 minutes at 4° C. A 40 μL aliquot of the HDL-containing supernatant is transferred to a Packard Optiplate™ with 200 μL of MicroScint™ 20. After mixing, plates are counted by liquid scintillation. […]
`O[C@H](CN1c2ccccc2N(Cc2cccc(OC(F)F)c2)CC1c1cccc(OC(F)F)c1)C(F)(F)F` (stereo partly drawn) [Example 60] registered a half-maximal inhibitory concentration (IC50) of 14 nM.

As for `CC(C)(O)c1ccc(C2CN(Cc3cccc(OC(F)(F)F)c3)c3ccccc3N2C[C@@H](O)C(F)(F)F)cc1` (stereo partly drawn) [Example 59], the IC50 was determined as 24 nM.

As to `O[C@H](CN1c2ccc(F)cc2N(Cc2cccc(OC(F)(F)F)c2)CC1c1cccc(OC(F)F)c1)C(F)(F)F` (stereo partly drawn) [Example 58], the IC50 is 16 nM.

In turn, `O[C@H](CN1c2ccccc2N(Cc2cccc(OC(F)(F)F)c2)CC1c1cccc(OC(F)F)c1)C(F)(F)F` (stereo partly drawn) [Example 61] yielded an IC50 of 7.5 nM.

System in the next data set: not given
Assay: not given
The conditions noted are these: torcetrapib and atorvastatin concomitantly compared with atorvastatin alone; cited from earlier work.
Consider `CCOC(=O)N1c2ccc(C(F)(F)F)cc2[C@@H](N(Cc2cc(C(F)(F)F)cc(C(F)(F)F)c2)C(=O)OC)C[C@H]1CC` [torcetrapib], for which the mortality result is “higher incidence of mortality”.

System in another data set: not given
Assay: not given
The conditions noted are these: patients treated with anacetrapib; cited from earlier work.
As for `COc1cc(F)c(C(C)C)cc1-c1ccc(C(F)(F)F)cc1CN1C(=O)O[C@H](c2cc(C(F)(F)F)cc(C(F)(F)F)c2)[C@@H]1C` [anacetrapib], the increase in mortality entry is “unlikely”.

Still in this data set, the particulars now being: patients, with baseline statin therapy, compared with just a statin; cited from earlier work.
With `COc1cc(F)c(C(C)C)cc1-c1ccc(C(F)(F)F)cc1CN1C(=O)O[C@H](c2cc(C(F)(F)F)cc(C(F)(F)F)c2)[C@@H]1C` [anacetrapib], the “decrease of LDL-C” value is on record as 40% and the “increase of HDL-C” value is 138%.

Another data set addresses CETP (Homo sapiens (Human), UniProt P11597). Description: RTA assay, CETP-catalyzed CE and TG transfer, recombinant CETP (2% human serum). In kind it is biochemical.
Settings: not given
On the procedure:
as §1, §2, §3, §4
Transfer assays are performed in a 96-well v-bottom polypropylene plate. For the RTA using recombinant CETP (2% RTA), an assay cocktail is prepared with the final concentrations 128 μg/mL HDL, 20 nM rCETP, 2% human serum, and 1×CETP buffer. 1 μL of each test compound diluted in DMSO is added to 47 μL of assay cocktail per well and incubated at 37° C. for 1 hour. To initiate the transfer reaction, 2 μL radiolabeled LDL is added. After an additional 60 min of incubation at 37° C., the transfer action is terminated by precipitation of LDL with an equal volume of 20% W/V PEG 8000. The plates are centrifuged at 2000 rpm for 30 minutes at 4° C. A 40 μL aliquot of the HDL-containing supernatant is transferred to a Packard Optiplate™ with 200 μL of MicroScint™ 20. After mixing, plates are counted by liquid scintillation. Counts present in the supernatant for blanks (wells containing only HDL acceptor, CETP buffer and DMSO) are subtracted from those containing test compounds and used to correct for non-specific transfer.
Comparison of the counts of samples with inhibitors to an uninhibited (DMSO only) positive control yield a percent inhibition. A plot of percent inhibition vs. log of inhibitor concentration, fit to a Sigmoidal 4 parameter equation is used to calculate IC50.
On to `O[C@H](CN1c2ccccc2N(Cc2cccc(OC(F)(F)F)c2)C[C@H]1c1ccccc1)C(F)(F)F` [Example 17, (R)-3-((R)-4-(3-trifluoromethoxy)-2-phenyl-3,4-dihydroquinoxalin-1(2H)-yl)-1,1,1-trifluoro-propan-2-ol], for which the IC50 is 34 nM.

For the compound `O[C@H](CN1c2ccccc2N(Cc2cc(C(F)(F)F)cc(C(F)(F)F)c2)C[C@H]1c1ccccc1)C(F)(F)F` [Example 3], the IC50 was 74 nM.

On to `O[C@H](CN1c2ccccc2N(Cc2cc(OC(F)(F)F)ccc2F)C[C@H]1c1ccccc1)C(F)(F)F` [Example 5, (R)-1,1,1-trifluoro-3-((R)-4-(2-fluoro-5-(trifluoromethoxy)benzyl)-2-phenyl-3,4-dihydroquinoxalin-1(2H)-yl)-propan-2-ol], for which the concentration for half-maximal inhibition (IC50) was determined as 11 nM.

As for `O[C@H](CN1c2ccccc2N(Cc2cccc(OC(F)(F)F)c2)C[C@H]1c1ccccc1)C(F)(F)F` [Example 1, (R)-3-((R)-4-(3-trifluoromethoxy)-2-phenyl-3,4-dihydroquinoxalin-1(2H)-yl)-1,1,1-trifluoropropan-2-ol], the half-inhibitory concentration (IC50) stood at 19 nM.

With `O[C@H](CN1c2ccccc2N(Cc2cccc(F)c2)C[C@H]1c1ccccc1)C(F)(F)F` [Example 7, (R)-3-((R)-4-(3-fluorobenzyl)-2-phenyl-3,4-dihydroquinoxalin-1(2H)-yl)-1,1,1-trifluoropropan-2-ol], the IC50 came out at 110 nM.

As to `O[C@@H](CN1c2ccccc2N(Cc2cccc(OC(F)(F)F)c2)C[C@H]1c1ccccc1)C(F)(F)F` [Example 2, (S)-3-((R)-4-(3-trifluoromethoxy)-2-phenyl-3,4-dihydro-quinoxalin-1(2H)-yl)-1,1,1-trifluoro-propan-2-ol], the IC50 stood at 1350 nM.

`O[C@H](CN1c2ccccc2N(Cc2cccc(C(F)(F)F)c2)C[C@H]1c1ccccc1)C(F)(F)F` [Example 9, (R)-3-((R)-4-(3-trifluoromethylbenzyl)-2-phenyl-3,4-dihydroquinoxalin-1(2H)-yl)-1,1,1-trifluoropropan-2-ol]: the 50% inhibitory concentration (IC50) amounted to 47 nM.

As to `O[C@H](CN1c2ccccc2N(Cc2cccc(OC(F)(F)C(F)F)c2)C[C@H]1c1ccccc1)C(F)(F)F` [Example 4, (R)-1,1,1-trifluoro-3-((R)-2-phenyl-4-(3-(1,1,2,2-tetrafluoroethoxy)benzyl)-3,4-dihydroquinoxalin-1(2H)-yl)-propan-2-ol], the IC50 was 112 nM.

`CCc1cc(CN2C[C@@H](c3ccccc3)N(C[C@@H](O)C(F)(F)F)c3ccccc32)ccc1Cl` [Example 6, (R)-3-((R)-4-(4-chloro-3-ethylbenzyl)-2-phenyl-3,4-dihydroquinoxalin-1(2H)-yl)-1,1,1-trifluoropropan-2-ol]: the 50% inhibitory concentration (IC50) was 30 nM.

Consider `CCOc1cccc(CN2C[C@@H](c3ccccc3)N(C[C@@H](O)C(F)(F)F)c3ccccc32)c1` [Example 8, (R)-3-((R)-4-(3-ethoxybenzyl)-2-phenyl-3,4-dihydroquinoxalin-1(2H)-yl)-1,1,1-trifluoropropan-2-ol], for which the IC50 was 301 nM.
